Results reported in patent US20260308145A1, “CDK2 INHIBITORS AND METHODS OF USING SAME” (Shenzhen lonova Life Science Co., Ltd., priority 2023, published 2026).

Columns and labels:
Type in all cases: biochemical
CDK2/cyclinE1 = biological target: T1, CDK2/cyclinE1 (Homo sapiens, UniProt P24941); assay: Cyclin-dependent kinase activity assay (continuous ATP coupling assay), CDK2/cyclinE1; details: CDK2/cyclinE1 5 nM, ATP 300 μM, Rb copeptide 100 μM, 15 min preincubation, pH 7.5, 1% DMSO
T1 construct: purchased Carna Biosciences 04-165
Procedure, shortened: (§1)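 PK/LDH-coupled continuous assay, ATP at each kinase's Km, Tris pH 7.5 with 1% DMSO final; enzyme preincubated 15 min with compound (10 μM to 0.05 nM, 1:3), NADH fluorescence decrease (ex 340/em 460) gave velocities. IC50 by 4-variable fit; Ki by quadratic/Morrison fit.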

CDK4/cyclinD3 = biological target: T2, CDK4/cyclinD3 (Homo sapiens, UniProt P11802); assay: Cyclin-dependent kinase activity assay (continuous ATP coupling assay), CDK4/cyclinD3; details: CDK4/cyclinD3 60 nM, ATP 500 μM, Rb copeptide 500 μM, 15 min preincubation, pH 7.5, 1% DMSO
T2 construct: purchased Carna Biosciences 04-105
T2 sequence (P11802 whole entry): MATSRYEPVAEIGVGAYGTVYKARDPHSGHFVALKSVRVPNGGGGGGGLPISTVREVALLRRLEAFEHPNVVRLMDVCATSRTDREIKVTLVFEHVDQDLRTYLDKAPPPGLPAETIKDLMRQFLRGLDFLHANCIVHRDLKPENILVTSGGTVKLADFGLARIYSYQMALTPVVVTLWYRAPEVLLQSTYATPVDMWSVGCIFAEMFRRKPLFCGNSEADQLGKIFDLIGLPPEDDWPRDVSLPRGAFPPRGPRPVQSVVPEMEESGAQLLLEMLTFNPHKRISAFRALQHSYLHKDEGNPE
T2 sequence (P30281 whole entry partner): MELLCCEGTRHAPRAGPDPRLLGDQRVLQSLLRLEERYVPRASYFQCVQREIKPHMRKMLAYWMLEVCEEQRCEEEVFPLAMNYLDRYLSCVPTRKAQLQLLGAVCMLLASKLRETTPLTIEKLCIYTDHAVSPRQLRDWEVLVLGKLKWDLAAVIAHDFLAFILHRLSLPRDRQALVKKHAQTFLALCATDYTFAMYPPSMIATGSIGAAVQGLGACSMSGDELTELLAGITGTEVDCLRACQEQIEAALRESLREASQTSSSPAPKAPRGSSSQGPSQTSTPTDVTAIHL
Procedure, shortened: as §1

CDK1/cyclinB1 = biological target: T3, CDK1/cyclinB1 (Homo sapiens, UniProt P06493); assay: Cyclin-dependent kinase activity assay (continuous ATP coupling assay), CDK1/cyclinB1; details: CDK1/cyclinB1 10 nM, ATP 200 μM, Histone1 copeptide 100 μM, 15 min preincubation, pH 7.5, 1% DMSO
T3 construct: purchased Carna Biosciences 04-102
T3 sequence (P06493 whole entry): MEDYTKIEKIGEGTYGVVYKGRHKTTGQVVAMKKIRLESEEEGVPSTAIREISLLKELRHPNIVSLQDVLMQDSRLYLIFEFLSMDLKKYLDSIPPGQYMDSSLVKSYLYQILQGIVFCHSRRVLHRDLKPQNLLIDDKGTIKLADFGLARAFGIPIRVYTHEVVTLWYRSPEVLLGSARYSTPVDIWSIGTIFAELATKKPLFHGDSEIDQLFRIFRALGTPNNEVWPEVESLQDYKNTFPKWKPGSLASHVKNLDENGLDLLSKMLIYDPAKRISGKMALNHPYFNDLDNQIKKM
T3 sequence (P14635 whole entry partner): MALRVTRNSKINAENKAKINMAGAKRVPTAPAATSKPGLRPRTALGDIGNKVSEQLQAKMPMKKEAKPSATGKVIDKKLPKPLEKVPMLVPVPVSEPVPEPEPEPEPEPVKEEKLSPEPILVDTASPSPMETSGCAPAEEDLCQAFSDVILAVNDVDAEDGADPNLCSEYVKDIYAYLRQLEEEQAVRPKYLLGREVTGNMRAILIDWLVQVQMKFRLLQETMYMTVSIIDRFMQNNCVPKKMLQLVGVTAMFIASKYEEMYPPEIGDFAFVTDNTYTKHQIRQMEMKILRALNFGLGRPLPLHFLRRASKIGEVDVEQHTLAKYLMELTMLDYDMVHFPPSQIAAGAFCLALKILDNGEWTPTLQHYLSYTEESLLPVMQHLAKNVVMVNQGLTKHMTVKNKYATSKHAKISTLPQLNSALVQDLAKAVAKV
Procedure, shortened: as §1

CDK6/cyclinD3 = biological target: T4, CDK6/cyclinD3 (Homo sapiens, UniProt Q00534); assay: Cyclin-dependent kinase activity assay (continuous ATP coupling assay), CDK6/cyclinD3; details: CDK6/cyclinD3 25 nM, ATP 500 μM, Rb copeptide 500 μM, 15 min preincubation, pH 7.5, 1% DMSO
T4 construct: purchased Carna Biosciences 04-107
T4 sequence (Q00534 whole entry): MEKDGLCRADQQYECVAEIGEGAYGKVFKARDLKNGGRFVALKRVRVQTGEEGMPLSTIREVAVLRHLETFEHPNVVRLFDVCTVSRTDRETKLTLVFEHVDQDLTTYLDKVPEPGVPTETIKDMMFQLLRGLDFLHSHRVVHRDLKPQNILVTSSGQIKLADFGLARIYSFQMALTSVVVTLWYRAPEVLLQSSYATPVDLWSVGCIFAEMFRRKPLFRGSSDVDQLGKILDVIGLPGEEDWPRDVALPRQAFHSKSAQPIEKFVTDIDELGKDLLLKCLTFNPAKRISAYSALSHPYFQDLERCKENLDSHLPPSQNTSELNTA
T4 sequence (P30281 whole entry partner): as the sequence (P30281 whole entry partner) above
Procedure, shortened: as §1

Row | IC50 (CDK2/cyclinE1) [µM] | IC50 (CDK4/cyclinD3) [µM] | IC50 (CDK1/cyclinB1) [µM] | IC50 (CDK6/cyclinD3) [µM] | Compound
1 | ≤ 0.01 | ≥ 0.1 | 0.01 to 0.1 | ≥ 0.1 | CC(CO)NS(=O)(=O)c1ccc(Nc2ncc(C(F)(F)F)c(-n3cccn3)n2)cc1 (stereo not drawn) [Example 133]
2 | 0.01 to 0.1 | 0.01 to 0.1 | 0.01 to 0.1 | ≥ 0.1 | CNS(=O)(=O)c1ccc(Nc2ncc(C(F)(F)F)c(-n3cc([C@H]4CCC[C@H]4O)cn3)n2)cc1 (single isomer, unassigned) [Example 77]
3 | ≤ 0.01 | ≥ 0.1 | ≥ 0.1 | ≥ 0.1 | O=S(=O)(NCCCCO)c1ccc(Nc2ncc(C(F)(F)F)c(-n3cccn3)n2)cc1 [Example 113]
4 | ≤ 0.01 | 0.01 to 0.1 | 0.01 to 0.1 | 0.01 to 0.1 | CN(C)CCNS(=O)(=O)c1ccc(Nc2ncc(C(F)(F)F)c(-n3cccn3)n2)cc1 [Example 43]
5 | 0.01 to 0.1 | 0.01 to 0.1 | ≥ 0.1 | 0.01 to 0.1 | CC(C)(O)CCc1cnn(-c2nc(NC3CCN(S(C)(=O)=O)CC3)ncc2C(F)(F)F)c1 [Example 109]
6 | ≤ 0.01 | ≥ 0.1 | 0.01 to 0.1 | ≥ 0.1 | CNS(=O)(=O)c1ccc(Nc2ncc(C(F)(F)F)c(-n3cc(N4CC(O)C4)cn3)n2)cc1 [Example 100]
7 | ≤ 0.01 | ≤ 0.01 | 0.01 to 0.1 | 0.01 to 0.1 | CNS(=O)(=O)c1ccc(Nc2ncc(C(F)(F)F)c(-n3cc(C4CCCN4)cn3)n2)cc1 (single isomer, unassigned) [Example 92]
8 | 0.01 to 0.1 | ≥ 0.1 | ≥ 0.1 | ≥ 0.1 | CNS(=O)(=O)c1ccc(Nc2ncc(C(F)(F)F)c(-n3cc(C4CC4(F)F)cn3)n2)cc1 (single isomer, unassigned) [Example 53, 4-[[4-[4-(2,2-difluorocyclopropyl)pyrazol-1-yl]-5-(trifluoromethyl)pyrimidin-2-yl]amino]-N-methyl-benzenesulfonamide]
9 | ≤ 0.01 | 0.01 to 0.1 | 0.01 to 0.1 | 0.01 to 0.1 | CNS(=O)(=O)c1ccc(Nc2ncc(Br)c(-n3cc(CC(C)(C)O)cn3)n2)cc1 [Example 68]
10 | ≤ 0.01 | ≤ 0.01 | 0.01 to 0.1 | 0.01 to 0.1 | CNS(=O)(=O)c1ccc(Nc2ncc(C(F)(F)F)c(-n3cc(C4CCCC4)cn3)n2)cc1 [Example 11, 4-((4-(4-cyclopentyl-1H-pyrazol-1-yl)-5-(trifluoromethyl)pyrimidin-2-yl)amino)-N-methylbenzenesulfonamide]
11 | ≤ 0.01 | ≥ 0.1 | ≥ 0.1 | ≥ 0.1 | O=S(=O)(NCCO)c1ccc(Nc2ncc(C(F)(F)F)c(-n3cccn3)n2)cn1 [Example 136, N-(2-hydroxyethyl)-5-[[4-pyrazol-1-yl-5-(trifluoromethyl)pyrimidin-2-yl]amino]pyridine-2-sulfonamide]
12 | 0.01 to 0.1 | ≥ 0.1 | ≥ 0.1 | ≥ 0.1 | O=S(=O)(NCCO)c1ccc(Nc2ncc(C(F)(F)F)c(-n3cccn3)n2)cc1F [Example 123]
13 | ≤ 0.01 | ≥ 0.1 | 0.01 to 0.1 | ≥ 0.1 | O=S(=O)(NCCO)c1ccc(Nc2ncc(C(F)(F)F)c(-n3cccn3)n2)cc1 [Example 36, 4-((4-(1H-pyrazol-1-yl)-5-(trifluoromethyl)pyrimidin-2-yl)amino)-N-(2-hydroxyethyl) benzene sulfonamide]
14 | ≤ 0.01 | ≥ 0.1 | ≥ 0.1 | ≥ 0.1 | CNS(=O)(=O)c1ccc(Nc2ncc(C(F)(F)F)c(-n3cc(N4CCN(C)CC4)cn3)n2)cc1 [Example 83]
15 | ≤ 0.01 | 0.01 to 0.1 | ≥ 0.1 | ≥ 0.1 | CNS(=O)(=O)c1ccc(Nc2ncc(C(F)(F)F)c(-n3cc(C)cn3)n2)cc1 [Example 46]
16 | 0.01 to 0.1 | 0.01 to 0.1 | ≥ 0.1 | 0.01 to 0.1 | CNS(=O)(=O)c1ccc(Nc2ncc(C(F)F)c(-n3cc(CC(C)(C)O)cn3)n2)cc1 [Example 66]
17 | 0.01 to 0.1 | ≥ 0.1 | ≥ 0.1 | ≥ 0.1 | CNS(=O)(=O)c1ccc(Nc2ncc(C(F)(F)F)c(-n3cc(N4CCCC4)cn3)n2)cc1 [Example 87, N-methyl-4-[[4-(4-pyrrolidin-1-ylpyrazol-1-yl)-5-(trifluoromethyl)pyrimidin-2-yl]amino]benzene sulfonamide]
18 | ≥ 0.1 | ≥ 0.1 | ≥ 0.1 | ≥ 0.1 | FC(F)(F)c1cnc(Nc2ccc(S(F)(F)(F)(F)F)cc2)nc1-n1cccn1 [Example 34]

Row | IC50 (CDK2/cyclinE1) [µM] | IC50 (CDK4/cyclinD3) [µM] | IC50 (CDK1/cyclinB1) [µM] | IC50 (CDK6/cyclinD3) [µM] | Compound
19 | ≤ 0.01 | 0.01 to 0.1 | 0.01 to 0.1 | 0.01 to 0.1 | CNS(=O)(=O)c1ccc(Nc2ncc(Cl)c(-n3cc(CC(C)(C)O)cn3)n2)cc1 [Example 65]
20 | 0.01 to 0.1 | ≥ 0.1 | ≥ 0.1 | ≥ 0.1 | COCCNS(=O)(=O)c1ccc(Nc2ncc(C(F)(F)F)c(-n3cccn3)n2)cc1 [Example 127]
21 | 0.01 to 0.1 | ≥ 0.1 | ≥ 0.1 | ≥ 0.1 | CNS(=O)(=O)c1ccc(Nc2ncc(F)c(-n3cccn3)n2)cc1 [Example 21]
22 | 0.01 to 0.1 | 0.01 to 0.1 | ≥ 0.1 | 0.01 to 0.1 | CC(C)(O)c1cnn(-c2nc(NC3CCN(S(C)(=O)=O)CC3)ncc2F)c1 [Example 1, 2-(1-(5-fluoro-2-((1-(methylsulfonyl)piperidin-4-yl)amino)pyrimidin-4-yl)-1H-pyrazol-4-yl)propan-2-ol]
23 | 0.01 to 0.1 | ≥ 0.1 | ≥ 0.1 | ≥ 0.1 | CNS(=O)(=O)c1ccc(Nc2ncc(C(F)(F)F)c(-n3cc(C4CN(C(C)=O)C4)cn3)n2)cc1 [Example 99]
24 | ≤ 0.01 | 0.01 to 0.1 | ≥ 0.1 | 0.01 to 0.1 | O=S(=O)(c1ccc(Nc2ncc(C(F)(F)F)c(-n3cccn3)n2)cc1)N1CCNCC1 [Example 37]
25 | 0.01 to 0.1 | ≥ 0.1 | ≥ 0.1 | ≥ 0.1 | CNS(=O)(=O)c1ccc(Nc2ncc(C(F)(F)F)c(-n3cc(F)cn3)n2)cc1 [Example 45]
26 | ≤ 0.01 | ≥ 0.1 | ≥ 0.1 | ≥ 0.1 | CNS(=O)(=O)c1ccc(Nc2ncc(Br)c(-n3cccn3)n2)cc1 [Example 25]
27 | ≤ 0.01 | 0.01 to 0.1 | 0.01 to 0.1 | 0.01 to 0.1 | CNS(=O)(=O)c1ccc(Nc2ncc(C(F)(F)F)c(-n3cc([C@H]4C[C@@H](O)C4)cn3)n2)cc1 [Example 103, 4-[[4-[4-(3-hydroxycyclobutyl)pyrazol-1-yl]-5-(trifluoromethyl)pyrimidin-2-yl]amino]-N-methyl-benzene sulfonamide]
28 | ≤ 0.01 | ≥ 0.1 | ≥ 0.1 | ≥ 0.1 | O=S(=O)(NC1(CO)CC1)c1ccc(Nc2ncc(C(F)(F)F)c(-n3cccn3)n2)cc1 [Example 135]
29 | 0.01 to 0.1 | 0.01 to 0.1 | ≥ 0.1 | ≥ 0.1 | CNS(=O)(=O)c1ccc(Nc2ncc(C(F)(F)F)c(-n3cc([C@@H]4CCC[C@H]4O)cn3)n2)cc1 (single isomer, unassigned) [Example 74]
30 | 0.01 to 0.1 | ≥ 0.1 | ≥ 0.1 | ≥ 0.1 | CS(=O)(=O)Nc1ccc(Nc2ncc(C(F)(F)F)c(-n3cccn3)n2)cc1 [Example 120]
31 | ≤ 0.01 | 0.01 to 0.1 | 0.01 to 0.1 | 0.01 to 0.1 | CNS(=O)(=O)c1ccc(Nc2ncc(C(F)(F)F)c(-n3cc(C4CCN(C)CC4)cn3)n2)cc1 [Example 80, N-methyl-4-[[4-[4-(1-methyl-4-piperidyl)pyrazol-1-yl]-5-(trifluoromethyl)pyrimidin-2-yl]amino]benzene sulfonamide]
32 | ≤ 0.01 | ≥ 0.1 | ≥ 0.1 | ≥ 0.1 | NS(=O)(=O)c1ccc(Nc2ncc(C(F)(F)F)c(-n3cccn3)n2)cc1 [Example 18]
33 | ≤ 0.01 | 0.01 to 0.1 | 0.01 to 0.1 | 0.01 to 0.1 | CNS(=O)(=O)c1ccc(Nc2ncc(C(F)(F)F)c(-n3cc(CC(C)(C)O)cn3)n2)cc1 [Example 2, 4-((4-(4-(2-hydroxy-2-methylpropyl)-1H-pyrazol-1-yl)-5-(trifluoromethyl)pyrimidin-2-yl)amino)-N-methylbenzenesulfonamide]
34 | ≥ 0.1 | ≥ 0.1 | ≥ 0.1 | ≥ 0.1 | CC1(Nc2ncc(C(F)(F)F)c(-n3cccn3)n2)CCN(S(C)(=O)=O)CC1 [Example 29]
35 | 0.01 to 0.1 | ≥ 0.1 | ≥ 0.1 | ≥ 0.1 | CNS(=O)(=O)c1ccc(Nc2ncc(C(F)(F)F)c(-n3cc([C@H]4C[C@H](O)C4)cn3)n2)cc1 [Example 106, 4-((4-(4-((1r,3r)-3-hydroxycyclobutyl)-1H-pyrazol-1-yl)-5-(trifluoromethyl)pyrimidin-2-yl)amino)-N-methylbenzenesulfonamide]
36 | ≤ 0.01 | 0.01 to 0.1 | ≥ 0.1 | 0.01 to 0.1 | CNS(=O)(=O)c1ccc(Nc2ncc(C(F)(F)F)c(-n3cc(C4CC4)cn3)n2)cc1 [Example 50]
